Measured values from patent publication US4749704A, “Cyclopenta[d]pyrimidine derivatives and use as antidepressants” (Sankyo Company Limited, priority 1985, dated 1988).

How the values were obtained:
reserpine-induced ptosis = experiment: Test for Anti-reserpine Activity (inhibition of reserpine-induced ptosis); assay type: in vivo, male mice of the ddy strain; conditions: mice, oral, reserpine 2 mg/kg s.c., ptosis at 90, 120 and 180 min
Experimental: The test animals used were male mice of the ddy strain, each weighing 23-25 g. Each compound was tested on a group of five such mice. Each test compound was employed in the form of a solution or suspension in a physiological saline solution containing 0.3% w/v carboxymethylcellulose. The test employed was a partial modification of the method of Rubin et al. [J. Pharmacol. Exptl. Therap., 120, 125 (1957)].
2 mg/kg of reserpine were injected subcutaneously into each mouse and, immediately after the injection, the solution or suspension of the test compound was given orally in a dose of 5 mg/kg, 10 mg/kg or 25 mg/kg, as shown in the following Table. The animals were observed 90 minutes, 120 minutes and 180 minutes after administration to evaluate the inhibition of ptosis. At each observation, each mouse was assigned from 0 to 3 points corresponding to the degree of ptosis, as follows:
0 points: eyes completely open;
1 point: eyes about one third closed;
2 points: eyes about two thirds closed;
3 points: eyes completely closed.
For each mouse, the number of points from all three observations were added together, and the percentage inhibition of reserpine-induced ptosis (Ri) was calculated from the following formula:
Po =total number of points from three observations of an animal to which reserpine alone was administered; and
Pt =total number of points from three observations of an animal to which reserpine and the test compound were administered.

[1] = test system: male rats of the F-344 strain; experiment: Acute Toxicity Test (single oral dose, 7 days observation); assay type: in vivo, rat (F-344 strain)
Experimental: The test animals used were male rats of the F-344 strain, each weighing from 150 to 170 g. One group of animals was fed normally, whilst another group was starved for 24 hours before administration of the test compound. To each animal was administered orally a single dose of the test compound in the amount shown in the following Table; the animals were then placed under observation for 7 days after administration. The results are reported in Table as "Mortality", where the numerator indicates the number of deaths in the observation period and the denominator indicates the number of animals tested with the particular test compound at the particular dose.

monoamine oxidase = experiment: Toxicity to the Liver (inhibition of monoamine oxidase in the rat liver); assay type: biochemical; conditions: estimated from inhibition of monoamine oxidase in the rat liver
[2] = background statement; cited from earlier work

Compound	Ri % (percentage inhibition of reserpine-induced ptosis) (reserpine-induced ptosis; dose 25 mg (25 mg/kg)) [%]	Mortality (deaths/animals tested) ([1]; fed rats, single oral dose 200 mg)	Mortality (deaths/animals tested) ([1]; starved (24 hours) rats, single oral dose 200 mg)	Ri % (percentage inhibition of reserpine-induced ptosis) (reserpine-induced ptosis; dose 5 mg (5 mg/kg)) [%]	Ri % (percentage inhibition of reserpine-induced ptosis) (reserpine-induced ptosis; dose 10 mg (10 mg/kg)) [%]	Mortality (deaths/animals tested) ([1]; fed rats, single oral dose 800 mg)	Mortality (deaths/animals tested) ([1]; starved (24 hours) rats, single oral dose 1500 mg)	toxicity to the liver relative to the prior art compound (Compound A) (monoamine oxidase)	side-effect activities [2]
N#Cc1ccc(Nc2ncnc3c2CCC3)cc1 [Compound A, 4-(4-cyanoanilino)-6,7-dihydro-5H-cyclopenta[d]pyrimidine, reference compound]	85.0	1/5	3/5	–	–	–	–	–	–
N#Cc1ccc(Nc2ncnc3c2CCC3O)cc1 (stereo not shown) [Compound No. 31, 4-(4-Cyanoanilino)-6,7-dihydro-7-hydroxy-5H-cyclopenta[d]pyrimidine]	85.7	–	–	50	71.4	0/5	0/5	about half that of the prior art compound	–
CN(C)CCCN1c2ccccc2CCc2ccccc21 [Imipramine]	–	–	–	–	–	–	–	–	exhibits antihistaminic and anticholinergic activities
